Experimental findings from patent US4959367A, “4-oxo-1,2,3-benzotriazines” (Beecham Group P.L.C., priority 1987, dated 1990) are described below.

In the test the test system is von Bezold-Jarisch reflex evoked by 5-HT. The experiment in a line: Antagonism of the von Bezold-Jarisch reflex evoked by 5-HT in the anaesthetised rat. Format: in vivo. The note with it: male rats, urethane anaesthesia, submaximal 5-HT (usually 6 μg/kg) i.v., heart rate changes; for ED50: Rattus norvegicus, iv, read-out: ED50 (required to reduce the 5HT-evoked response to 50% of the control response). As to the method:
Antagonism of the von Bezold-Jarisch reflex
The compounds were evaluated for antagonism of the von Bezold-Jarisch reflex evoked by 5-HT in the anaesthetised rat according to the following method:
Male rats, 250-350 g, were anaesthetised with urethane (1.25 g/kg intraperitoneally) and blood pressure and heart rate recorded as described by Fozard J.R. et al., J. Cardiovasc. Pharmacol. 2, 229-245 (1980). A submaximal dose of 5-HT (usually 6 μg/kg) was given repeatedly by the intravenous route and changes in heart rate quantified. Compounds were given intravenously and the concentration required to reduce the 5HT-evoked response to 50% of the control response (ED50) was then determined.

What is called ED50 is the dose at which the effect has come halfway, by size or by number of responders. For `CN1[C@@H]2CC[C@H]1C[C@@H](n1nnc3ccc(Cl)cc3c1=O)C2` [Compound E1, (endo)-3-(8-Methyl-8-azabicyclo[3.2.1]oct-3-yl)-6-chloro-3,4-dihydro-4-oxo-1,2,3-benzotriazine], the ED50 came to 0.012 mg/kg. For the molecule `CN1[C@@H]2CC[C@H]1C[C@@H](n1nnc3cc([N+](=O)[O-])c(Cl)cc3c1=O)C2` [Compound E3, (endo)-3-(8-Methyl-8-azabicyclo[3.2.1]oct-3-yl)-6-chloro-7-nitro-3,4-dihydro-4-oxo-benzotriazine], the median effective dose (ED50) worked out at 0.013 mg/kg. Same read-out and setting: the value for `CN1[C@@H]2CC[C@H]1C[C@@H](n1nnc3cc(N)c(Cl)cc3c1=O)C2` [Compound E4, (endo)-3-(8-Methyl-8-azabicyclo[3.2.1]oct-3-yl)-7-amino-6-chloro-3,4-dihydro-4-oxo-benzotriazine] was 0.00017 mg/kg. With `CN1CC2CCC1CC2n1nnc2cc(N)c(Cl)cc2c1=O` (stereo not drawn) [Compound E8, (5β)-3-(2-Methyl-2-azabicyclo[2.2.2]oct-5-yl)-7-amino-6-chloro-3,4-dihydro-4-oxobenzotriazine], for the setting “i.v.”, the “ED50 (required to reduce the 5HT-evoked response to 50% of the control response)” value is 0.006 mg/kg.
